Values of other authors in patent US20120207744A1, “REPROGRAMMING COMPOSITIONS AND METHODS OF USING THE SAME” (priority 2009, published 2012).
Structures can show the parent of a compound that is named as a salt.

Tests used:
ESCs = conditions: cyclic activation of Wnt/β-catenin signaling in ESCs
[1] = test system: mouse embryonic fibroblasts; conditions: small-molecule combination BIX-01294 and BayK8644
human ESCs = conditions: both appear equally effective in facilitating clonal growth
ES-cell = conditions: repression of MEK/ERK, in culture
ROCK1/ROCK2 = conditions: inhibits by competing with ATP; Ishizaki et al. 2000
[2] = test system: primary human fibroblasts; conditions: Oct-3/4 and Sox-2, without c-Myc or Klf-4
Oct-3/4-GFP = Oct-3/4-GFP as a reporter
Klf-4 promoter = conditions: transient transfection, 2622-bp mouse Klf-4 promoter

Molecule: O=C1Nc2cc(Br)ccc2/C1=C1/Nc2ccccc2/C1=N\O [6-bromoindirubin-3′-oxime]
- ability of ESCs to reprogram somatic cells after fusion (ESCs): strikingly enhances

Molecule: COc1cc2nc(N3CCCN(C)CC3)nc(NC3CCN(Cc4ccccc4)CC3)c2cc1OC [BIX-01294]
- reprogramming of Oct-3/4/Klf-4 transduced cells [1]: enables reprogramming

Molecule: COC(=O)C1=C(C)NC(C)=C([N+](=O)[O-])C1c1ccccc1C(F)(F)F (stereo not drawn) [BayK8644]
- reprogramming of Oct-3/4/Klf-4 transduced cells [1]: enables reprogramming

Molecule: Cc1cncc2cccc(S(=O)(=O)N3CCCNC[C@@H]3C)c12.Cl.Cl [H-1152, (S)-(+)-2-methyl-1-[(4-methyl-5-isoquinolinyl)sulfonyl]homopiperazine dihydrochloride]
- working concentration for facilitating clonal growth, relative to HA-100 (human ESCs): ten times lower working concentrations than HA-100

Molecule: COc1cccc(-c2cc(=O)c3ccccc3o2)c1N [PD098059]
- effect on differentiation and ES-cell self-renewal (ES-cell): inhibits differentiation and maintains ES-cell self-renewal in culture

Molecule: N#CC(=C(/N)Sc1ccccc1N)/C(C#N)=C(\N)Sc1ccccc1N [U0126]
- effect on enterostatin-induced inhibition of KLF4 gene expression (GT1-7 cells; GT1-7 cells, ERK inhibitor): blocked

Molecule: C[C@@H](N)[C@H]1CC[C@H](C(=O)Nc2ccncc2)CC1 [Y-27632, (+)-(R)-trans-4-(1-aminoethyl)-N-(4-pyridyl)cyclohexanecarboxamide dihydrochloride]
- IC50 (ROCK1/ROCK2): 800 nM

Molecule: CCCC(CCC)C(=O)O [valproic acid]
- reprogramming with only two factors [2]: enables reprogramming of primary human fibroblasts
- improvement of reprogramming efficiency (Oct-3/4-GFP): more than 100 fold

Molecule: enterostatin
- effect on KLF4 gene expression (GT1-7 cells; GT1-7 cells treated with the peptide): inhibited KLF4 gene expression

B1: IFN-gamma: IFN-gamma, cytokine inducing Klf-4 expression via phosphorylated STAT1 (protein, UniProt P01579 24-161, looked up)
Interferon gamma: QDPYVKEAENLKKYFNAGHSDVADNGTLFLGILKNWKEESDRKIMQSQIVSFYFKLFKNFKDDQSIQKSVETIKEDMNVKFFNSNKKKRDDFEKLTNYSVTDLNVQRKAIHELIQVMAELSPAAKTGKRKRSQMLFRG
- increase of Klf-4 promoter activity (Klf-4 promoter): 3.5 fold

B2: Wnt3a: Wnt protein activating Wnt/β-catenin signaling (protein, UniProt P56704 19-352, looked up)
Protein Wnt-3a: SYPIWWSLAVGPQYSSLGSQPILCASIPGLVPKQLRFCRNYVEIMPSVAEGIKIGIQECQHQFRGRRWNCTTVHDSLAIFGPVLDKATRESAFVHAIASAGVAFAVTRSCAEGTAAICGCSSRHQGSPGKGWKWGGCSEDIEFGGMVSREFADARENRPDARSAMNRHNNEAGRQAIASHMHLKCKCHGLSGSCEVKTCWWSQPDFRAIGDFLKDKYDSASEMVVEKHRESRGWVETLRPRYTYFKVPTERDLVYYEASPNFCEPNPETGSFGTRDRTCNVSSHGIDGCDLLCCGRGHNARAERRREKCRCVFHWCCYVSCQECTRVYDVHTCK
- ability of ESCs to reprogram somatic cells after fusion (ESCs): strikingly enhances
